The values below come from PubChem BioAssay (NCI).

Among the test systems are BT-549 breast; SK-MEL-2 melanoma; TK-10 renal; LOX IMVI melanoma; MALME-3M melanoma; A549 NSCLC; SNB-19 CNS; HOP-92 NSCLC; HL-60(TB) leukemia; SF-539 CNS.
Experiment in all cases: NCI tumour cell line growth inhibition, 48 h

Several values for one entry are separate records, joined by “and”; a condition that tells them apart may be missing. Identical values can stand only once.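 Tested at 5 concentrations; 48 h exposure; 96-well plates; endpoints linearly interpolated, else capped at highest concentration. At the GI50, growth is halved. TGI: total growth inhibition.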 A value given as a limit tells only on which side of the number the result lay.

Take `COc1ccc(-c2nn(-c3cccc(Cl)c3)cc2-c2c(C#N)c(=O)n3[nH]c(-c4ccc(C)cc4)nc3c2C#N)cc1`: the GI50 in the assay with BT-549 breast is 3.79 µM; with SK-MEL-2 melanoma, 1.41 µM; in the assay on TK-10 renal, 2.01 µM; with LOX IMVI melanoma, 2.44 µM; in the assay on MALME-3M melanoma it was 2.16 µM; with A549 NSCLC, 1.85 µM. In addition, the GI50 in the assay with SNB-19 CNS was 2.17 µM; with HOP-92 NSCLC, 0.723 µM; in the assay on HL-60(TB) leukemia it was 8.33 µM; with SF-539 CNS, 1.28 µM. Besides, the TGI with BT-549 breast is 14.8 µM; with SK-MEL-2 melanoma it was 4.02 µM; in the assay on TK-10 renal, 7.35 µM; in the assay with LOX IMVI melanoma, 17.1 µM; with MALME-3M melanoma, 9.12 µM; in the assay on A549 NSCLC, 12.4 µM. For the same molecule, the TGI in the assay with SNB-19 CNS was 18.2 µM; with HOP-92 NSCLC, 4.88 µM; in the assay on HL-60(TB) leukemia it was 29.6 µM; in the assay on SF-539 CNS, 3.61 µM.

Regarding `CN1C(=O)C(=Cc2cn(Cc3ccccc3)c3ccccc23)C(=O)N(C)C1=O`, the GI50 in the assay with BT-549 breast is 56.5 µM; in the assay with TK-10 renal, 4.28 µM; in the assay with LOX IMVI melanoma it was 35.3 µM; in the assay on MALME-3M melanoma, 42.1 µM; in the assay with A549 NSCLC, above 39.7 µM; with SNB-19 CNS it was above 100 µM. The GI50 in the assay with HOP-92 NSCLC was 14.7 µM; in the assay on HL-60(TB) leukemia it was above 43.4 µM; in the assay on SF-539 CNS, 47.3 µM. Also, the TGI is above 100 µM with BT-549 breast; above 67.6 µM with SK-MEL-2 melanoma; 56.5 µM in the assay on TK-10 renal; above 100 µM in the assay with LOX IMVI melanoma; above 100 µM in the assay with MALME-3M melanoma; above 100 µM in the assay with A549 NSCLC. Moreover, the TGI in the assay with SNB-19 CNS is above 100 µM; in the assay with HOP-92 NSCLC, above 70.9 µM; with HL-60(TB) leukemia, above 100 µM; in the assay on SF-539 CNS, above 100 µM.

`COc1ccc(-c2cn(-c3cccc(C(=O)/C=C/c4ccc(O)c(OC)c4)c3)c(=O)[nH]2)cc1`: the GI50 in the assay with BT-549 breast is 3.32 µM; with SK-MEL-2 melanoma, 4.72 µM; in the assay with TK-10 renal, 7.38 µM; in the assay on LOX IMVI melanoma, 2.21 µM; with MALME-3M melanoma it was 3.98 µM; with A549 NSCLC, 3.64 µM. For the same molecule, the GI50 was 4.59 µM in the assay with SNB-19 CNS, 2.61 µM with HOP-92 NSCLC, 2.5 µM in the assay with HL-60(TB) leukemia and 2.12 µM in the assay on SF-539 CNS. The TGI in the assay on BT-549 breast is 22.8 µM; in the assay with SK-MEL-2 melanoma, above 58.1 µM; with TK-10 renal, above 85.4 µM; in the assay with LOX IMVI melanoma, 6.02 µM; in the assay on MALME-3M melanoma it was 24.4 µM; in the assay on A549 NSCLC, above 53 µM. Moreover, the TGI is 43.9 µM with SNB-19 CNS, 20.5 µM in the assay on HOP-92 NSCLC, 16 µM in the assay with HL-60(TB) leukemia and 5.53 µM in the assay with SF-539 CNS.

Take `CCCOC(=O)N[C@H]1CCc2cc(OC)c(OC)c(OC)c2-c2ccc(SC)c(=O)cc21`: the GI50 in the assay with BT-549 breast was below 0.01 µM; with SK-MEL-2 melanoma, 0.463 µM; in the assay with TK-10 renal, 3.61 µM; in the assay with LOX IMVI melanoma it was below 0.01 µM; in the assay on MALME-3M melanoma it was 0.0476 µM; in the assay on A549 NSCLC it was below 0.01 µM. Further, the GI50 with SNB-19 CNS is below 0.01 µM; with HOP-92 NSCLC, below 0.0182 µM; with HL-60(TB) leukemia it was below 0.01 µM; with SF-539 CNS, below 0.01 µM. Further, the TGI was 19.6 µM in the assay on BT-549 breast; 90.1 µM in the assay on SK-MEL-2 melanoma; above 70.5 µM in the assay with TK-10 renal; above 42.4 µM in the assay on LOX IMVI melanoma; above 47.4 µM with MALME-3M melanoma; above 100 µM with A549 NSCLC. Also, the TGI in the assay on SNB-19 CNS was above 100 µM; in the assay with HOP-92 NSCLC it was 16.1 µM; in the assay with HL-60(TB) leukemia, below 0.0129 µM; in the assay on SF-539 CNS it was 0.173 µM.

With `O=C(O)c1ccc([S-])cc1.[Au+].c1ccc(CN2[CH-]N(Cc3ccccc3)C(c3ccccc3)=C2c2ccccc2)cc1`, the GI50 in the assay with BT-549 breast is 0.318 µM; in the assay on SK-MEL-2 melanoma it was 0.346 µM; in the assay with TK-10 renal it was 0.613 µM; with LOX IMVI melanoma it was 0.311 µM; in the assay on MALME-3M melanoma, 0.249 µM; in the assay on A549 NSCLC it was 0.358 µM. For the same molecule, the values for the GI50 in the assay on HOP-92 NSCLC, in the assay on HL-60(TB) leukemia and with SF-539 CNS were 0.204 µM, 0.321 µM and 0.505 µM, respectively. Also, the TGI in the assay on BT-549 breast was found to be 1.42 µM; in the assay on SK-MEL-2 melanoma it was 1.21 µM; in the assay with TK-10 renal, 1.98 µM; in the assay on LOX IMVI melanoma, 1.37 µM; in the assay with MALME-3M melanoma, 0.797 µM; with A549 NSCLC it was 1.63 µM. For the same molecule, the TGI in the assay with HOP-92 NSCLC was 0.806 µM; in the assay with HL-60(TB) leukemia, 1.29 µM; in the assay on SF-539 CNS, 1.78 µM.

With `Cc1cc([N+](=O)[O-])ccc1NS(=O)(=O)c1cc(Cl)ccc1Cl`, the GI50 with BT-549 breast was 2.48 µM; with SK-MEL-2 melanoma it was 2.67 µM; in the assay with TK-10 renal, 3.54 µM; with LOX IMVI melanoma, 3.44 µM; in the assay with MALME-3M melanoma, 2.33 µM; in the assay on A549 NSCLC it was 2.91 µM. Besides, the GI50 was 3.4 µM with SNB-19 CNS, 0.666 µM in the assay with HOP-92 NSCLC, 3.13 µM in the assay on HL-60(TB) leukemia and 3.45 µM with SF-539 CNS. The TGI is 14 µM with BT-549 breast; 8.56 µM with SK-MEL-2 melanoma; 75.2 µM in the assay with TK-10 renal; 13 µM in the assay on LOX IMVI melanoma; 6.83 µM in the assay with MALME-3M melanoma; above 51 µM in the assay with A549 NSCLC. For the same molecule, the TGI is above 100 µM in the assay on SNB-19 CNS, 3.81 µM with HOP-92 NSCLC, 12.8 µM with HL-60(TB) leukemia and 20.7 µM in the assay on SF-539 CNS.

With `c1ccc(Nn2c(CCCCCCCCc3nnc(COc4ccccc4)n3Nc3ccccc3)nnc2COc2ccccc2)cc1`, the GI50 is 33 µM in the assay with BT-549 breast; 13.8 µM and 25.5 µM with SK-MEL-2 melanoma; 45.7 µM and 162 µM in the assay with TK-10 renal; 5.35 µM and 4.04 µM with LOX IMVI melanoma; 27.5 µM and 25.7 µM in the assay on MALME-3M melanoma; 107 µM in the assay with SNB-19 CNS. The GI50 is 30.7 µM and 41.9 µM in the assay on HOP-92 NSCLC; 2.55 µM and 9.66 µM in the assay on HL-60(TB) leukemia; 7.23 µM in the assay with SF-539 CNS. In addition, the TGI with BT-549 breast is above 300 µM; in the assay on SK-MEL-2 melanoma it was > 63.4 µM and 252 µM; with TK-10 renal it was above 300 µM; in the assay on LOX IMVI melanoma, above 300 µM; in the assay with MALME-3M melanoma, above 300 µM; in the assay with SNB-19 CNS, above 300 µM. Moreover, the TGI in the assay with HOP-92 NSCLC is 267 µM; with HL-60(TB) leukemia, above 300 µM; with SF-539 CNS, > 60.5 µM and 20 µM.
